In patent US20100221758A1, “Sensors for Measuring Contaminants” (ECI Biotech Inc., priority 2007, published 2010):
“Also recorded” adds a separate entry of the source. Starred links: 1 amine or outer side, 2 acyl side, 3 side chain; linkers in the order of their positions; H or OH if unused. Residues, ends and D or L forms follow the SMILES beside them. *: point of attachment. Glutaryl = O=C(CCCC(=O)[*:2])[*:1]; AMC = Cc1cc(=O)oc2cc(N*)ccc12

How the values were obtained:
[1] = system: thioredoxin reductase (trxB); experiment: Thioredoxin reductase (trxB) detection assay; type: biochemical, Mycoplasma hyorhinis
Protocol: Other fluorescent probes such as BODIPY®FL L-cystine and the 2′,7′-difluoro-4′-(2-(5-((dimethyl amino phenyl)azo)pyridyl)dithiopropionyl aminomethyl)fluorescein (abbreviated as DFDMAP-fluorescein) were studied to improve the sensitivity and the signal-to-noise ratio of the assay. Assays were performed with 40 mM Tris pH 7.2, 100 mM NaCl±detergent.
A detergent lysis buffer procedure that would hydrolyze the simple Mycoplasma cell membranes but not lyse the tissue culture cells was needed. Methyl-6-O—(N-heptylcarbamoyl)-α-D-glucopyranoside (HECAMEG) is a preferred detergent.
An alternative substrate to produce the thioredoxin reductase signal was to measure the release of horseradish peroxidase (HRP) from a chromatography bead tethered with the heterobifunctional crosslinking reagent 3,3′-dithiobis[sulfosuccinimidylpropionate] (DTSSP).

[2] = system: reductases produced by the bacteria; experiment: Dye decolorization by bacterial culture supernatants; type: biochemical; settings: bacterial culture supernatant, about 18 hours incubation
Protocol: Each well was incubated with 10 μg of reactive black 5 plus 190 μl of culture supernatant from the following bacterium: E. coli, E. faecalis, S. aureus, P. aeruginosa, S. pyogenes, and S. marcescens. […] The decolorization is indicative of reductases produced by the bacteria.
Reductase activity can be measured through a Azo dye that gets decolorized by the release of reductases from many bacterial cells. […] A sensor placed on the bottom of a culture dish, buffer container or even on a swab for measuring the presence of mycoplasma in human fluids can be used to ascertain bacterial contamination or infection. The benefit of a simple azo dye sensor is low cost although it may not specifically detect different bacteria. […] Each well was incubated with 10 μg of reactive black 5 plus 190 μl of filtered culture supernatant from the following bacterium: E. coli, E. faecalis, S. aureus, P. aeruginosa, S. pyogenes, and S. marcescens. […] The decolorization is indicative of reductases produced by the bacteria.

S. aureus = experiment: Thioredoxin reductase cross-reactivity with DTNB substrate; type: biochemical; settings: up to 10^6 CFU/ml S. aureus
Description: (§1) Since thioredoxin reductases are widely distributed in eukaryotes and prokaryotic cells, there is a possibility that thioredoxin reductases from other microbes may cross-react with this assay to give a false positive result. […] This high NTS activity is presumed to be useful for Mycoplasma for the detoxification of reactive oxygen compounds, since the Mollicutes have simple genomes that lack the genes encoding enzymes such as catalase, peroxidase and […] that function to remove H2O2 and other oxygen radicals in other bacteria (Gibson, D. G., et al., Complete chemical synthesis, assembly, and cloning of a Mycoplasma genitalium genome. Science. 319(5867):1215-1220 (2008)).

E. coli = experiment: as above; type: biochemical; settings: up to 10^6 CFU/ml E. coli
Description: as §1

M. hyorhinis [3] = experiment: Effect of divalent cations on Vmax, MCA-Leu substrate; type: biochemical, Mycoplasma hyorhinis; set-up: unit not given here; settings: 1 mM additive in place of 1 mM MgCl2
Protocol: (§2) A presently preferred substrate is leu-MCA that had significant activity above the uninfected media control under the gentle conditions used to lyse the Mycoplasma (0.05% HECAMEG, 1 mM MgCl2, 100 mM NaCl, 40 mM Tris buffer, pH 8.5). The MCA-Leu substrate produces a signal level of 500 mOD in 30 minutes with M. hyorhinis, while M. hyorhinis has weak activity for arg-MCA.
Detergent lysis of M. hyorhinis with HECAMEG gives better signal than sonication. Manganese or magnesium also improves the signal to noise ratio.

Mycoplasma cells = experiment: Detergent lysis buffer procedure for trxB assay; type: cell-based
Protocol: A detergent lysis buffer procedure that would hydrolyze the simple Mycoplasma cell membranes but not lyse the tissue culture cells was needed. Methyl-6-O—(N-heptylcarbamoyl)-α-D-glucopyranoside (HECAMEG) is a preferred detergent. […] As expected, 0.1 mM NADPH enhanced the activity of trxB (FIG. 12). As a substrate for trxB, Bodipy® FL L-cystine provided a signal that was 7500 times that of the buffer control, however this signal was an artifact of the digitonin.

[4] = system: lon ATP-dependent protease; experiment: Assays for proteolytic activity, fluorogenic MCA substrate (Table 5); type: biochemical, Mycoplasma hyorhinis; set-up: unit not given beside the values
Description: (§3) Further studies examined the suitability of the […] for use in a diagnostic test. These studies used several fluorogenic substrates consisting of small chain amino acids coupled to a methoxy coumarin fluorescent probe (MCA, (7-methoxycoumarin-4-yl)acetyl). The test conditions were “buffer,” phosphate-buffered saline (PBS), “uninfected medium,” medium from cell cultures not infected with Mycoplasma, “infected medium,” medium from cell cultures infected with Mycoplasma, and a Mycoplasma positive control derived from a Mycoplasma culture. In each case the uninfected media control had substantial background proteolytic activity, with pepA being the most candidate with a signal-to-noise ratio (S/N) of about 2, where S/N=(Vmax infected medium)/(Vmax uninfected medium).

M. hyorhinis [5] = experiment: Vmax measured using MCA labeled substrates with gentle HECAMEG lysis; type: biochemical, Mycoplasma hyorhinis; set-up: Vmax: unit not given here
Protocol: as §2

[6] = system: pepA Leucine aminopeptidase; experiment: Assays for proteolytic activity, fluorogenic MCA substrate (Table 5); type: biochemical, Mycoplasma hyorhinis
Description: as §3

[7] = system: map Methionine aminopeptidase; experiment: as above; type: biochemical, Mycoplasma hyorhinis; set-up: unit not given beside the values
Description: as §3

Compound: Cc1cc(C)n2c1C=C1C=CC(CCC(=O)N[C@@H](CSSC[C@H](NC(=O)CCC3=[N+]4C(=Cc5c(C)cc(C)n5[B-]4(F)F)C=C3)C(=O)O)C(=O)O)=[N+]1[B-]2(F)F [Bodipy® FL L-cystine, BODIPY®FL L-cystine]
- signal relative to buffer control ([1]; signal was an artifact of the digitonin): 7500 times

Compound: CN(C)c1ccc(N=Nc2ccc(C(=O)O)cc2)cc1 [DABCYL, 4-((4-(dimethylamino)phenyl)azo)benzoic acid]
- decolorization [2]: completely decolorized

Compound: CN(C)c1ccc(N=Nc2ccc(SSCCC(=O)NCc3c(O)c(F)cc4c(-c5ccccc5C(=O)O)c5cc(F)c(=O)cc-5oc34)nc2)cc1 [DFDMAP fluorescein, 2′,7′-difluoro-4′-(2-(5-((dimethylaminophenyl)azo)pyridyl)dithiopropionylaminomethyl)fluorescein]
- detection level ([1]; at 10^7-10^8 CFU/ml): 10,000-20,000 RFU

Compound: O=C(O)c1cc(SSc2ccc([N+](=O)[O-])c(C(=O)O)c2)ccc1[N+](=O)[O-] [DTNB, 5,5′-Dithio-bis-(2-nitrobenzoic acid)]
- hydrolysis / thioredoxin reductase activity (S. aureus): no significant activity; also recorded: no appreciable hydrolysis
- hydrolysis / thioredoxin reductase activity (E. coli): no significant activity; also recorded: no appreciable hydrolysis

Compound: O=C(O)CN(CCN(CC(=O)O)CC(=O)O)CC(=O)O [EDTA]
- Vmax, MCA-Leu Substrate (M. hyorhinis [3]; Buffer): 0
- Vmax, MCA-Leu Substrate (M. hyorhinis [3]; Infected): 45241
- Vmax, MCA-Leu Substrate (M. hyorhinis [3]; Medium): 1710
- Vmax, MCA-Leu Substrate (M. hyorhinis [3]; Uninfected): 3873

Compound: CCCCCCCNC(=O)OC[C@H]1O[C@H](OC)[C@H](O)[C@@H](O)[C@@H]1O [HECAMEG, Methyl-6-O—(N-heptylcarbamoyl)-α-D-glucopyranoside]
- concentration sufficient to lyse Mycoplasma cells while not disrupting the membranes of the cultured cells (Mycoplasma cells): 0.5%

Compound: O=S(=O)([O-])[O-].[Mg+2] [MgSO4]
- Vmax, MCA-Leu Substrate (M. hyorhinis [3]; Buffer): 483
- Vmax, MCA-Leu Substrate (M. hyorhinis [3]; Infected): 90365
- Vmax, MCA-Leu Substrate (M. hyorhinis [3]; Uninfected): 5125

Compound: [Cl][Mn][Cl] [MnCl2]
- Vmax, MCA-Leu Substrate (M. hyorhinis [3]; Medium): 1703

Compound: CCN(Cc1cccc(S(=O)(=O)[O-])c1)c1ccc(C(=C2C=CC(=[N+](CC)Cc3cccc(S(=O)(=O)[O-])c3)C=C2)c2ccccc2S(=O)(=O)[O-])cc1.[Na+].[Na+] [blue dye number 1]
- decolorization [2]: not decolorized

Compound: Cc1cc(=O)oc2cc(NC(=O)[C@H](Cc3ccccc3)NC(=O)[C@H](C)NC(=O)[C@H](C)NC(=O)CCCC(=O)O)ccc12 [glt-ala-ala-phe-MCA] (Glutaryl-Ala-Ala-Phe-{AMC})
- Vmax ([4]; Buffer (PBS)): 55.8
- Vmax ([4]; Infected medium): 1802
- Vmax ([4]; Mycoplasma positive control): 3354
- Vmax ([4]; Uninfected medium): 1460

Compound: Nc1c(N=Nc2ccc(S(=O)(=O)CCOS(=O)(=O)[O-])cc2)c(S(=O)(=O)[O-])cc2cc(S(=O)(=O)[O-])c(N=Nc3ccc(S(=O)(=O)CCOS(=O)(=O)[O-])cc3)c(O)c12.[Na+].[Na+].[Na+].[Na+] [reactive black 5]
- decolorization [2]: completely decolorized

Compound: arginine-(7-methoxycoumarin-4-yl)acetyl [arg-MCA]
- activity of M. hyorhinis for substrate (M. hyorhinis [5]; 0.05% HECAMEG, 1 mM MgCl2, 100 mM NaCl, 40 mM Tris buffer, pH 8.5): weak activity
- Vmax (M. hyorhinis [5]; Buffer): 0
- Vmax (M. hyorhinis [5]; Infected medium): 60903
- Vmax (M. hyorhinis [5]; Medium): 676
- Vmax (M. hyorhinis [5]; Uninfected medium): 29034

Compound: leucine-(7-methoxycoumarin-4-yl)acetyl [leu-MCA]
- Vmax ([6]; Buffer (PBS)): 2874
- Vmax ([6]; Infected medium): 906
- Vmax ([6]; Mycoplasma positive control): 522
- Vmax ([6]; Uninfected medium): 454
- Vmax (M. hyorhinis [5]; Buffer): 236
- Vmax (M. hyorhinis [5]; Infected medium): 415190
- Vmax (M. hyorhinis [5]; Medium): 2118
- Vmax (M. hyorhinis [5]; Uninfected medium): 17422
- signal level (M. hyorhinis [5]; in 30 minutes with M. hyorhinis): 500 mOD

Compound: methionine-(7-methoxycoumarin-4-yl)acetyl [met-MCA]
- Vmax ([7]; Buffer (PBS)): 19.4
- Vmax ([7]; Infected medium): 627
- Vmax ([7]; Mycoplasma positive control): 733
- Vmax ([7]; Uninfected medium): 430
- Vmax (M. hyorhinis [5]; Buffer): 125
- Vmax (M. hyorhinis [5]; Infected medium): 302082
- Vmax (M. hyorhinis [5]; Medium): 1731
- Vmax (M. hyorhinis [5]; Uninfected medium): 19004
